# Data reported in patent publication US5866587A, “Metalloprotease inhibitors” (Adir Et Compagnie, priority 1996, dated 1999).
# Structures can show the parent of a compound that is named as a salt.
# Legend:
# [1] = tested on: murine Lewis carcinoma cells (LLC); test: Invasion in vitro, Transwell filter coated with artificial extracellular matrix; assay type: cell-based; details: Mus musculus, 24 h, medium with serum, read-out: inhibition of cellular invasion
# Experimental: The tests of invasion are carried out according to the following procedure: murine Lewis carcinoma cells (LLC) are deposited on the top face of a Transwell filter coated with an artificial extracellular matrix and are cultured in medium with serum for 24 h. The cells are then exposed to the vital stain 3-[4,5-dimethylthiazol-2-yl]-2,5-diphenyltetrazolium bromide and they are removed from the top face of the filter. The formazan crystals present under the filter are solubilized in a concentrated mixture of sodium dodecyl sulfate and dimethylformamide. The absorption at 540 nm of the corresponding colored mixture is then used to indirectly quantify cellular invasion.
# [2] = tested on: guinea pig cartilage; test: Degradation of the cartilaginous matrix induced by IL-1β: degradation of collagen (OH-proline release); assay type: cell-based; details: IL-1β (10 mg/ml) and plasminogen (30 μg/ml), 3 days; for inhibition at 1 µM: Cavia porcellus, 72 h, 10^-6 M, read-out: collagen % protection at 10^-6 M
# Experimental: (§1) The compounds of the invention were studied in a model of destruction of the cartilaginous matrix induced by IL-1β. The trials carried out on guinea pig cartilage relate:
# on the one hand, to the degradation of collagen: colorimetric assay according to the Grant technique (Grant R. A. Estimation of OH-proline by the autoanalyser, J. Clin. Path. 1964, 17, 685) of the OH-proline fraction released by the tissue brought into contact, for 3 days, with IL-1β ([…]) and of plasminogen (30 μg/ml),
# (§2) The compounds of the invention were studied by addition to the culture medium for the 3 days of assay. […] By way of example, the activities exerted by some compounds of the invention are the following: […]
# [3] = tested on: sections of thoracic aorta from Fischer 344 rats; test: Angiogenesis in vitro, formation of pseudovessels in collagen gel; assay type: cell-based; details: Rattus norvegicus, 120 h; at 100 nM, five days of culture in serum-free medium; read-out: inhibition of formation of pseudovessels (vascular density)
# Excerpt: Sections of thoracic aorta from 8- to 12-week old male Fischer 344 rats are immersed in a collagen type I gel according to the Nicosia and Ottinetti method (1990). After five days of culture in serum-free medium, the preparations are examined under a microscope and the formation of pseudovessels is quantified in terms of vascular density after digitization and image analysis.
# [4] = tested on: guinea pig cartilage; test: Degradation of the cartilaginous matrix induced by IL-1β: degradation of proteoglycans (35SO4 glycosaminoglycan release); assay type: cell-based; details: IL-1β (10 mg/ml), 3 days; for inhibition at 30 µM: Cavia porcellus, 72 h, 3 × 10^-5 M, cartilage labeled with 35SO4, read-out: proteoglycans % protection at 3 × 10^-5M
# Experimental: as §1
# on the other hand, to the degradation of proteoglycans: radioisotopic measurement of the glycosaminoglycan fraction released by the tissue during the 3 days of contact with IL-1β (10 mg/mil), the cartilage having been labeled beforehand with ^35 SO4.
# as §2
# [5] = tested on: ovarian cancers; details: Becket et al., DDT 1996; cited from earlier work
Compound,inhibition at 1 µM [1],inhibition at 1 µM [2],inhibition at 0.1 µM [3],inhibition at 30 µM [4],antitumor activity in clinical trials [5],collagen % protection at 10^-6 M ([2]; 1 µM),"proteoglycans % protection at 3 × 10^-5M ([4]; cartilage labeled with 35SO4, 30 µM)"
"COc1ccc(S(=O)(=O)N2Cc3occc3C[C@@H]2C(=O)NO)cc1 [Example 28, (5R)-6-(4-Methoxybenzenesulfonyl)-4,5,6,7-tetrahydrofuro[2,3-c]pyridine-5-(N-hydroxy)carboxamide]",44%,79%,85%,34%,,,
"COc1ccc(S(=O)(=O)N2Cc3nc[nH]c3C[C@@H]2C(=O)NO)cc1 [Example 23, (6R)-5-(4-Methoxybenzenesulfonyl)-4,5,6,7-tetrahydro-imidazo[4,5-c]pyridine-6-(N-hydroxy)carboxamide Hydrochloride]",,88%,,24%,,,
"COc1ccc(S(=O)(=O)N2Cc3ccsc3C[C@@H]2C(=O)NO)cc1 [Example 1, (6R)-5-(4-Methoxybenzenesulfonyl)-4,5,6,7-tetrahydrothieno[3,2-c]pyridine-6-(N-hydroxy)carboxamide]",45%,98%,87%,45%,,,
"COc1ccc(S(=O)(=O)N2Cc3sccc3C[C@@H]2C(=O)NO)cc1 [Example 15, (5R)-6-(4-Methoxybenzenesulfonyl)-4,5,6,7-tetrahydro-thieno[2,3-c]pyridine-5-(N-hydroxy)carboxamide]",,98%,,60%,,,
CNC(=O)[C@H](Cc1ccccc1)NC(=O)[C@H](CC(C)C)[C@H](CSc1cccs1)C(=O)NO [BB94],,,,,proved active on ovarian cancers,,
"CCCCCCCC1c2[nH]c3ccccc3c2C[C@H](C(=O)NO)N1S(=O)(=O)c1ccc(OC)cc1 (single isomer, unassigned) [Example 7]",,,,,,47%,100%
